From patent US6887869B2, “Mikanolide derivatives, their preparation and therapeutic uses” (Societe de Conseils de Recherches et d'Applications …, priority 2001, dated 2005)

These molecules were tested on DU-145 (human prostate cancer cells) (assay: Measurement of cell proliferation (WST1), DU-145). Conditions: DU-145, 96 hours treatment, read-out: IC50 inhibitory concentration, proliferation of DU-145 cell lines.
Format: cell-based
Procedure: (§1) DU-145 (human prostate cancer cells), HT29 (cancer of the colon) and Mia-PaCa2 (human pancreatic cancer cells) were acquired from the American Tissue Culture Collection (Rockville, Md., USA).
(§2) Measurement of Cell Proliferation
(§3) The cells placed in 80 μl of Dulbecco's modified Eagle medium (Gibco-BRL, Cergy-Pontoise, France) completed with 10% of foetal calf serum inactivated by heating (Gibco-BRL, Cergy-Pontoise, France), 50000 units/l of penicillin and 50 mg/l streptomycin (Gibco-BRL, Cergy-Pontoise, France), and 2 mM of glutamine (Gibco-BRL, Cergy-Pontoise, France) were seeded on a 96-well plate on day 0. The cells were treated on day 1 for 96 hours with increasing concentrations of each of the compounds to be tested. At the end of the of this period, quantification of the cell proliferation is evaluated by a calorimetric test based on the cleavage of the tetrazolium salt WST1 by mitochondrial dehydrogenases in viable cells leading to the formation of formazan (Boehringer Mannheim, Meylan, France). These tests are carried out in duplicate with 8 determinations per concentration tested. The products are solubilised in dimethylsulphoxide (DMSO) at 10^−2 M and finally used in culture with 0.5% DMSO.

| SMILES | IC50 |
| --- | --- |
| CN(C)CC1C(=O)OC2CC3(C)OC3C(O)C(N(C)C)C3=CC(OC3=O)C21 (centres unmarked) [Example 2, 12-dimethylamino-3-dimethylaminomethyl-11-hydroxy-8-methyl-5,9,15-trioxatetracyclo[11.2.1.0^2,6.0^8,10]hexadec-13(16)-ene-4,14-dione] | ≤ 30 µM |
| CC1CCN(C2C3=CC(OC3=O)C3C(CC4(C)OC4C2O)OC(=O)C3C)CC1 (centres unmarked) [Example 9, 11-hydroxy-3,8-dimethyl-12-(4-methylpiperidino)-5,9,15-trioxatetracyclo[11.2.1.0^2,6.0^8,10]hexadec-13(16)-ene-4,14-dione] | ≤ 30 µM |

Each molecule was assayed on Mia-PaCa2 (human pancreatic cancer cells) (assay: Measurement of cell proliferation (WST1), Mia-PaCa2). Conditions: MIA PaCa-2, Mia-Paca2, 96 hours treatment, read-out: IC50 inhibitory concentration, proliferation of Mia-Paca2 cell lines.
Format: cell-based
Procedure: as §1, §2, §3

| SMILES | IC50 |
| --- | --- |
| CN(C)CC1C(=O)OC2CC3(C)OC3C(O)C(N(C)C)C3=CC(OC3=O)C21 (centres unmarked) [Example 2, 12-dimethylamino-3-dimethylaminomethyl-11-hydroxy-8-methyl-5,9,15-trioxatetracyclo[11.2.1.0^2,6.0^8,10]hexadec-13(16)-ene-4,14-dione] | ≤ 30 µM |
| CC12CC3OC(=O)C(CN4CCOCC4)C3C3C=C(C(=O)O3)C(N3CCOCC3)C(O)C1O2 (centres unmarked) [Example 4, 11-hydroxy-8-methyl-12-morpholino-3-morpholinomethyl-5,9,15-trioxatetracyclo[11.2.1.0^2,6.0^8,10]hexadec-13(16)-ene-4,14-dione] | ≤ 30 µM |
| CC1C(=O)OC2CC3(C)OC3C(O)C(N(C)C)C3=CC(OC3=O)C21 (centres unmarked) [Example 5, 12-dimethylamino-11-hydroxy-3,8-dimethyl-5,9,15-trioxatetracyclo[11.2.1.0^2,6.0^8,10]hexadec-13(16)-ene-4,14-dione] | ≤ 30 µM |
| CC1CCN(C2C3=CC(OC3=O)C3C(CC4(C)OC4C2O)OC(=O)C3C)CC1 (centres unmarked) [Example 9, 11-hydroxy-3,8-dimethyl-12-(4-methylpiperidino)-5,9,15-trioxatetracyclo[11.2.1.0^2,6.0^8,10]hexadec-13(16)-ene-4,14-dione] | ≤ 30 µM |
| CC1C(=O)OC2CC3(C)OC3C(O)C(N3CCCC3)C3=CC(OC3=O)C21 (centres unmarked) [Example 10, 11-hydroxy-3,8-dimethyl-12-pyrrolidino-5,9,15-trioxatetracyclo[11.2.1.0^2,6.0^8,10]hexadec-13(16)-ene-4,14-dione] | ≤ 30 µM |
| CC1C(=O)OC2CC3(C)OC3C(O)C(N3CCC(Cc4ccccc4)CC3)C3=CC(OC3=O)C21 (centres unmarked) [Example 12, 12-(4-benzylpiperidino)-11-hydroxy-3,8-dimethyl-5,9,15-trioxatetracyclo[11.2.1.0^2,6.0^8,10]hexadec-13(16)-ene-4,14-dione] | ≤ 30 µM |
| CCOC(=O)OC1C(N2CCC(C)CC2)C2=CC(OC2=O)C2C(CC3(C)OC13)OC(=O)C2C (centres unmarked) [Example 19, ethyl 3,8-dimethyl-12-(4-methylpiperidino)-4,14-dioxo-5,9,15-trioxatetracyclo[11.2.1.0^2,6.0^8,10]hexadec-13(16)-en-11-yl carbonate] | ≤ 30 µM |
| CC(C)CSCC1C(=O)OC2CC3(C)OC3C(O)C(SCC(C)C)C3=CC(OC3=O)C21 (centres unmarked) [Example 20, 11-hydroxy-12-isobutylsulphanyl-3-isobutylsulphanylmethyl-8-methyl-5,9,15-trioxatetracyclo[11.2.1.0^2,6.0^8,10]hexadec-13(16)-ene-4,14-dione] | ≤ 30 µM |
| CC1C(=O)OC2CC3(C)OC3C(OC(=O)c3ccc([N+](=O)[O-])o3)C(N(C)C)C3=CC(OC3=O)C21 (centres unmarked) [Example 33, 12-(dimethylamino)-3,8-dimethyl-4,14-dioxo-5,9,15-trioxatetracyclo[11.2.1.0^2,6.0^8,10]hexadec-13(16)-en-11-yl 5-nitro-2-furoate] | ≤ 30 µM |
| CC1C(=O)OC2CC3(C)OC3C(OC(=O)Cc3cccs3)C(N(C)C)C3=CC(OC3=O)C21 (centres unmarked) [Example 35, 12-(dimethylamino)-3,8-dimethyl-4,14-dioxo-5,9,15-trioxatetracyclo[11.2.1.0^2,6.0^8,10]hexadec-13(16)-en-11-yl 2-thienylacetate] | ≤ 30 µM |
| CC1C(=O)OC2CC3(C)OC3C(OC(=O)COc3ccccc3)C(N(C)C)C3=CC(OC3=O)C21 (centres unmarked) [Example 36, 12-(dimethylamino)-3,8-dimethyl-4,14-dioxo-5,9,15-trioxatetracyclo[11.2.1.0^2,6.0^8,10]hexadec-13(16)-en-11-yl phenoxyacetate] | ≤ 30 µM |
| CC1C(=O)OC2CC3(C)OC3C(OC(=O)Nc3ccc(C(C)(C)C)cc3)C(N(C)C)C3CC(OC3=O)C21 (centres unmarked) [Example 37, 8-(dimethylamino)-3,10a-dimethyl-2,6-dioxodecahydro-4,7-methenofuro[3,2-c]oxireno[f]oxacycloundecin-9-yl 4-tert-butylphenylcarbamate] | ≤ 30 µM |
